In patent US9763445B2, “Safened herbicidal compositions comprising a pyridine carboxylic acid herbicide” (Dow AgroSciences, LLC, priority 2014, dated 2017):

Tests used:
lambsquarters (CHEAL) = experiment: Postemergence greenhouse trial, % visual injury on lambsquarters; format: in vivo, Chenopodium album; conditions: Chenopodium album, post-emergence, alone, read-out: % visual injury, Ob
Procedure, shortened: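 Visual injury, 0 (none) to 100 (complete kill), rated 20-22 d after overhead track-sprayer application at 187 L/ha; Colby's equation gave expected mixture responses. Herbicide (g ae/ha) and cloquintocet-mexyl safener (g ai/ha) diluted in aqueous 1.5% v/v Agri-dex, applied to weeds at 2–3 true leaves.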

spring barley (HORVS) = experiment: Postemergence greenhouse trial, % visual injury on spring barley; format: in vivo, Hordeum vulgare; conditions: alone
Procedure, shortened: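 Greenhouse crops at second to third true leaf stage sprayed postemergence at 187 L/ha with herbicide (g ae/ha) plus safener (g ai/ha) in acetone/DMSO diluted into 1.5% v/v Agri-dex. Injury scored visually versus solvent-blank controls after 20-22 d, 0 (none) to 100% (complete kill); expected mixture effects by Colby's equation.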

Russian thistle (SASKR) = experiment: Postemergence greenhouse trial, % visual injury on Russian thistle; format: in vivo, Salsola kali; conditions: alone
pigweed (AMARE) = experiment: Postemergence greenhouse trial, % visual injury on pigweed; format: in vivo, Amaranthus retroflexus; conditions: for % visual injury, observed (Ob): AMARE
Procedure, shortened: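 Injury was scored visually (0 = none, 100 = complete kill) 20–22 d after track-sprayer application at 187 L/ha, compared with solvent-sprayed controls. Test plants at the 2–3 true leaf stage; herbicide (g ae/ha) plus cloquintocet-mexyl safener (g ai/ha) in crop-oil-containing spray; expected mixture response by Colby.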

[1] = test system: bird's-eye speedwell (VERPE); experiment: Postemergence greenhouse trial, % visual injury on bird's-eye speedwell; format: in vivo, Veronica persica; conditions: alone
Procedure, shortened: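 Herbicide rates g ae/ha, safener (cloquintocet-mexyl) rates g ai/ha; spray carrier 1.5% v/v crop oil concentrate, 187 L/ha, 2nd–3rd leaf stage. Rating: visual % injury at 20-22 d.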

Nc1c(F)c(-c2ccc3cc[nH]c3c2F)nc(C(=O)O)c1Cl [compound 1]
pest or weed control at 4.375 g/ha (lambsquarters (CHEAL); 4.375 g/ha): 86%
pest or weed control at 8.75 g/ha (lambsquarters (CHEAL); 8.75 g/ha): 95%
pest or weed control at 17.5 g/ha (lambsquarters (CHEAL); 17.5 g/ha): 99%
pest or weed control at 35 g/ha (lambsquarters (CHEAL); 35 g/ha): 100%
pest or weed control at 70 g/ha (lambsquarters (CHEAL); 70 g/ha): 100%
% visual injury, Ob (spring barley (HORVS); 4.375 g/ha): 13%
% visual injury, Ob (spring barley (HORVS); 8.75 g/ha): 13%
% visual injury, Ob (spring barley (HORVS); 17.5 g/ha): 24%
% visual injury, Ob (spring barley (HORVS); 35 g/ha): 32%
% visual injury, Ob (spring barley (HORVS); 70 g/ha): 41%
% visual injury, Ob (Russian thistle (SASKR); 4.375 g/ha): 66%
% visual injury, Ob (Russian thistle (SASKR); 8.75 g/ha): 70%
% visual injury, Ob (Russian thistle (SASKR); 17.5 g/ha): 82%
% visual injury, Ob (Russian thistle (SASKR); 35 g/ha): 90%
% visual injury, Ob (Russian thistle (SASKR); 70 g/ha): 91%
% visual injury, observed (Ob) (pigweed (AMARE); compound 1 alone 20 g/ha): 100%
% visual injury, observed (Ob) (pigweed (AMARE); compound 1 alone 40 g/ha): 100%
pest or weed control at 4.375 g/ha (pigweed (AMARE); Amaranthus retroflexus, post-emergence, alone, 4.375 g/ha, read-out: % visual injury, Ob): 81%
pest or weed control at 8.75 g/ha (pigweed (AMARE); Amaranthus retroflexus, post-emergence, alone, 8.75 g/ha, read-out: % visual injury, Ob): 91%
pest or weed control at 17.5 g/ha (pigweed (AMARE); Amaranthus retroflexus, post-emergence, alone, 17.5 g/ha, read-out: % visual injury, Ob): 99%
pest or weed control at 35 g/ha (pigweed (AMARE); Amaranthus retroflexus, post-emergence, alone, 35 g/ha, read-out: % visual injury, Ob): 100%
pest or weed control at 70 g/ha (pigweed (AMARE); Amaranthus retroflexus, post-emergence, alone, 70 g/ha, read-out: % visual injury, Ob): 100%
% visual injury, Δ (pigweed (AMARE); alone, 35 g/ha): 0%
% visual injury, Ob ([1]; 4.375 g/ha): 93%
% visual injury, Ob ([1]; 8.75 g/ha): 95%
% visual injury, Ob ([1]; 17.5 g/ha): 98%
% visual injury, Ob ([1]; 35 g/ha): 99%
% visual injury, Ob ([1]; 70 g/ha): 99%
